{"source": "paper PMC13170702", "about": "(Nuclear medicine and biology, 2025)", "origin": "cited, not measured here", "conditions": "i.v., low molar activity tracer, PET-CT; cited from earlier work", "data": [{"smiles": "COC(=O)[C@@H](N)CC(=O)Nc1ccc2c(c1)Cc1cc([18F])ccc1-2", "note": "[[^18F]RP-115, methyl N^4-(7-[^18F]fluoro-9H-fluoren-2-yl)asparaginate]", "values": [{"measurement": "CNS activity uptake (SUV)", "result": "> 1"}]}]}
